Substitutions are numbered along the chain they refer to. Several values for one entry are separate records, joined by “and”; a condition that tells them apart may be missing. Equal values may be shown once.
What was measured:
GluD2-Lc = biological target: T1, GluD2-Lc (Rattus norvegicus, UniProt Q63226, A654T); assay: Two-electrode voltage clamp in Xenopus oocytes, inhibition of spontaneous currents; assay type: cell-based
T1 construct: the function of full-length receptors as well, we introduced them into the GluD2 lurcher mutant (GluD2-Lc); expressed in transfected cells; host or cells: Xenopus laevis oocytes injected with cRNA
T1 sequence (Q63226 24-1007 A654T): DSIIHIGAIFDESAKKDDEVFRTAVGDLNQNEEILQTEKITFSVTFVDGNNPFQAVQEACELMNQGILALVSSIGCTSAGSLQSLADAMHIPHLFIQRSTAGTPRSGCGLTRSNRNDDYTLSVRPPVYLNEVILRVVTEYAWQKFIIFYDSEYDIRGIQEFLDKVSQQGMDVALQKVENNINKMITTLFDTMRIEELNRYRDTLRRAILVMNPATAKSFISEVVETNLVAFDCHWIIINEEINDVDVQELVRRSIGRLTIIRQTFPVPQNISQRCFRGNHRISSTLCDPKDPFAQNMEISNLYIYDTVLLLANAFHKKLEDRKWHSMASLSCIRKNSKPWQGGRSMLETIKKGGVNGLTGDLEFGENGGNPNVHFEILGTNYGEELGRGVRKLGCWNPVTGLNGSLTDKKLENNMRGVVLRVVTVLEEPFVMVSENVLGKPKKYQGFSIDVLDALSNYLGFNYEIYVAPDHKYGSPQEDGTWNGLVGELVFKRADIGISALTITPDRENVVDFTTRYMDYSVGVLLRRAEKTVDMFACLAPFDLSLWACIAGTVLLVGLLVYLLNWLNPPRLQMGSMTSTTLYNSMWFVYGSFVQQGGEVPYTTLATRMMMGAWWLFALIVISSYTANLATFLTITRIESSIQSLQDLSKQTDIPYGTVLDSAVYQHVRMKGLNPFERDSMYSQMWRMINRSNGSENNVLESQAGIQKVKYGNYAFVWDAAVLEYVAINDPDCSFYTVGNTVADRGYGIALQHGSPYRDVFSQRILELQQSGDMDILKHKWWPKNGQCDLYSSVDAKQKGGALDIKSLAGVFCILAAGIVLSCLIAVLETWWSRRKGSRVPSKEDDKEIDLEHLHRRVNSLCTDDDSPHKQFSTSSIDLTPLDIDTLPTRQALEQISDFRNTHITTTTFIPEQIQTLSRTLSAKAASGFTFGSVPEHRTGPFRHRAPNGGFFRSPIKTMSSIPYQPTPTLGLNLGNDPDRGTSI
Source text: (§1) All cDNAs for expression in Xenopus oocytes were cloned into the vector pSGEM[30]. Point mutants of GluD2-Lc were constructed by overlap extension PCR with mutagenic oligonucleotide primers. The GluD2-Lc-(H)GluN1 chimera was constructed by transferring the S1- and S2-encoding sequences from GluD2-LBD-(H)GluN1 to GluD2-Lc via overlap extension PCR using tail primers. The S1 and S2 sequences were transferred separately, yielding GluD2-Lc-(HS1)GluN1 and GluD2-Lc-(HS2)GluN1 constructs. GluD2-Lc-(H)GluN1 was then produced from these by another overlap extension PCR. Complementary RNA (cRNA) for injection into oocytes was synthesised from 1 μg of linearised template DNA with the mMESSAGE mMACHINE in vitro transcription kit (Ambion, Austin, TX, USA).
(§2) Oocytes were obtained by surgically removing parts of the ovaries from Xenopus laevis (Nasco, Fort Atkinson, WI, USA) anaesthetised with 1.5 g/L 3-aminobenzoic acid ethylester (Sigma, Taufkirchen, Germany). […] Oocytes were injected with 11 ng cRNA (10 ng of each cRNA for co-expression of GluN1 and GluN2A) using a nanoliter injector (WPI, Sarasota, FL, USA). Four days after cRNA injection, current responses were recorded under voltage clamp at –70 mV with a Turbo Tec-10CD amplifier (npi electronic, Tamm, Germany) controlled by Patchmaster software (HEKA, Lambrecht, Germany). Currents were filtered with a 20 Hz low-pass filter and then digitised with a sampling rate of 50 Hz. Recording electrodes were pulled from borosilicate glass (Hilgenberg, Malsfeld, Germany) with an L/M-3P-A vertical pipette puller (List-Medical), filled with 3 M KCl, and had resistances of 0.5–5 MΩ (voltage electrode) or 0.5–1.5 MΩ (current electrode). Recordings were performed in a 50 μL chamber under constant superfusion with extracellular solution at a flow rate of 3–5 mL/min. […] Finally, Ba-NFR and then NMDGR were applied again to check for reversibility.

[1] = biological target: T2, GluD2-Lc(S544G)-(HS2)GluN1 (Rattus norvegicus, UniProt Q63226, A654T/A766F/D767R/N763E/R768S/S544G/T764L/V761T/V765F); assay: as above; assay type: cell-based; settings: fraction of spontaneous current inhibited by saturating D-serine
T2 construct: the function of full-length receptors as well, we introduced them into the GluD2 lurcher mutant (GluD2-Lc); expressed in transfected cells; host or cells: Xenopus laevis oocytes injected with cRNA
T2 sequence (Q63226 24-1007 S544G/A654T/V761T/N763E/T764L/V765F/A766F/D767R/R768S): T1 sequence (Q63226 24-1007 A654T) with S521G, V738T, N740E, T741L, V742F, A743F, D744R, R745S
Source text: as §1, §2

Question: `N[C@H](CO)C(=O)O` [D-serine] was tested. Which “D-serine efficacy Mean ± SEM” value (GluD2-Lc; fraction of spontaneous current inhibited by saturating D-serine) did it give?
Answer: The value was 46% and 46.2 ± 1.9%.

Question: What about the “maximal, absolute, D-serine-induced steady-state inhibition of spontaneous currents” value (GluD2-Lc; n = 20) of the same compound?
Answer: Its value is 222 ± 36 nA.

Question: And the “D-serine efficacy Mean ± SEM” value [1]?
Answer: The value was 40.6 ± 0.5%.

From publication PMC5384001 (Scientific Reports, 2017)
